The values below come from patent US20070117770A1, “Human ribosomal DNA (rDNA) and ribosomal RNA (rRNA) nucleic acids and uses thereof” (Cylene Pharmaceuticals, Inc., priority 2005, published 2007).

Each structure is given as a SMILES string.

Holding throughout (experiment): Protein kinase inhibition assay
Type in all cases: biochemical

The target of assay [1] is SAPK3(h) (Homo sapiens, UniProt P53778). The settings on record: read-out: percent residual activity of SAPK3(h). How it is done:
(§1) Certain compounds were tested for activity in protein kinase inhibition assays. All substrates were dissolved and diluted to working stocks in de-ionized water, apart from histone H1 (10× working stock in 20 mM MOPS pH 7.0), PDKtide (10× working stock in 50 mM Tris pH 7.0) ATF2 (which is typically stored at a 20× working stock in 50 mM Tris pH 7.5, 150 mM NaCl, 0.1 mM EGTA, 0.03% Brij-35, 50% glycerol, 1 mM benzamidine, 0.2 mM PMSF and 0.1% R-mercaptoethanol), KKLNRTLSFAEPG (SEQ ID NO:203) and RRRLSFAEPG (SEQ ID NO:204) (50 mM HEPES pH 7.4) and GGEEEEYFELVKKKK (SEQ ID NO:205) (20 mM MOPS pH 7.0). All kinases were pre-diluted to a 10× working concentration prior to addition into the assay. The composition of the dilution buffer for each kinase is detailed below.
(§2) In a final reaction volume of 25 μl, SAPK3 (h) (5-10 mU) is incubated with 25 mM Tris pH 7.5, 0.02 mM EGTA, 0.33 mg/ml myelin basic protein, 10 mM MgAcetate and [gamma-33P-ATP] (specific activity approx. 500 cpm/pmol, concentration as required). The reaction is initiated by the addition of the MgATP mix. After incubation for 40 minutes at room temperature, the reaction is stopped by the addition of 5 μl of a 3% phosphoric acid solution. 10 μl of the reaction is then spotted onto a P30 filtermat and washed three times for 5 minutes in 75 mM phosphoric acid and once in methanol prior to drying and scintillation counting.

The target of assay [2] is Arg(m) (Mus musculus, UniProt Q4JIM5). The settings on record: read-out: percent residual activity of Arg(m). As for the experimental part:
as §1
as §2, with “μl, Arg (m)” for “μl, SAPK3 (h)”, “with 8” for “with 25”, “mM MOPS” for “mM Tris”, “pH 7.0, 0.2” for “pH 7.5, 0.02”, “mM EDTA, 50 μM EAIYAAPFAKKK (SEQ ID NO:206),” for “mM EGTA, 0.33 mg/ml myelin basic protein,”

For assay [3], the target named is JNK3(h) (Homo sapiens, UniProt P53779). The following applies: read-out: percent residual activity of JNK3(h). As for the experimental part: as §1
JNK3(h), sequence (P53779 whole entry): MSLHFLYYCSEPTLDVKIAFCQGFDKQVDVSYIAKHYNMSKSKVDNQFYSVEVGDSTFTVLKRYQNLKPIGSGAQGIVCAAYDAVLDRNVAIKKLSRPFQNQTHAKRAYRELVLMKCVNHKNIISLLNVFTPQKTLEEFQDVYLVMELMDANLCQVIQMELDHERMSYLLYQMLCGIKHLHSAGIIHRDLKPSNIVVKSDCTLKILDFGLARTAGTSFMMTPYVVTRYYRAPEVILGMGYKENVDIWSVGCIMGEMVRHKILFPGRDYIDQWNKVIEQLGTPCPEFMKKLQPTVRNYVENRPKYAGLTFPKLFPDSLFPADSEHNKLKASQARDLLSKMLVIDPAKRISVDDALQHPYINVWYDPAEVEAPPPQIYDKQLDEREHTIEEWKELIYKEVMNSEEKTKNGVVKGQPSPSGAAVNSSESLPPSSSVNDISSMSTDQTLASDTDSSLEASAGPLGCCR
as §2, with “μl, JNK3” for “μl, SAPK3”, “with 50” for “with 25”, “7.5, 0.1” for “7.5, 0.02”, “EGTA, 0.1% R-mercaptoethanol, 250 μM peptide,” for “EGTA, 0.33 mg/ml myelin basic protein,”

Assay [4] addresses GSK3α(h) (Homo sapiens, UniProt P49840). The following applies: read-out: percent residual activity of GSK3α(h). As for the experimental part:
as §1
In a final reaction volume of 25 μl, GSK3α (h) (5-10 mU) is incubated with 8 mM MOPS pH 7.0, 0.2 mM EDTA, 20 μM […](p)EDEEE (SEQ ID NO:216) (phospho GS2 peptide), 10 mM MgAcetate and [gamma-33P-ATP] (specific activity approx. 500 cpm/pmol, concentration as required). The reaction is initiated by the addition of the MgATP mix. After incubation for 40 minutes at room temperature, the reaction is stopped by the addition of 5 μl of a 3% phosphoric acid solution. […]

The target in assay [5] is MSK2(h) (Homo sapiens, UniProt O75676). The following applies: read-out: percent residual activity of MSK2(h). How it is done: as §1
MSK2(h), sequence (O75676 whole entry): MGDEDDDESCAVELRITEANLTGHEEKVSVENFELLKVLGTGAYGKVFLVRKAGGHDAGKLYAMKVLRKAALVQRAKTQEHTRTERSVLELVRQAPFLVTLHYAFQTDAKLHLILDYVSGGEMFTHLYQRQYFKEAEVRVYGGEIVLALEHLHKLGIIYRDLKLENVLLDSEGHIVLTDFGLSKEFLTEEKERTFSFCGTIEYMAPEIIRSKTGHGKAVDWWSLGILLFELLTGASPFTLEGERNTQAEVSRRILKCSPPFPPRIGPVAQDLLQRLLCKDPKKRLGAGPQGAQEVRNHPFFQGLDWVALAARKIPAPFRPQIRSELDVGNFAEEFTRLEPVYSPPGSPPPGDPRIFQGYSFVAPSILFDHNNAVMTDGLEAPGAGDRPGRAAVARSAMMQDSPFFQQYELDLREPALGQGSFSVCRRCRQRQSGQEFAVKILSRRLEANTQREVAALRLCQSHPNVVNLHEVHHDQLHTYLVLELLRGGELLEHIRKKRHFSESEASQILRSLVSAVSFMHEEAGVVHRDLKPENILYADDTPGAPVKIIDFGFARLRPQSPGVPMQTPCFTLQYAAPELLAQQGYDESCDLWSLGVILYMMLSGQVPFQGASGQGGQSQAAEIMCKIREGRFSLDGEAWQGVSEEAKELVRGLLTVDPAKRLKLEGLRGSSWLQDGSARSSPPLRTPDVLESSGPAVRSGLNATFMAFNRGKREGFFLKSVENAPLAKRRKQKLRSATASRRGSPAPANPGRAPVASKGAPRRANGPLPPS
as §2, with “μl, MSK2” for “μl, SAPK3”, “with 8” for “with 25”, “mM MOPS” for “mM Tris”, “pH 7.0, 0.2” for “pH 7.5, 0.02”, “mM EDTA, 30 μM GRPRTSSFAEGKK (SEQ ID NO:220),” for “mM EGTA, 0.33 mg/ml myelin basic protein,”

Assay [6] has as its target EphB2(h) (Homo sapiens, UniProt P29323). The following applies: read-out: percent residual activity of EphB2(h). How it is done:
as §1
In a final reaction volume of 25 μl, EphB2 (h) (5-10 mU) is incubated with 8 mM MOPS pH 7.0, 0.2 mM EDTA, 10 mM MnCl2, 0.1 mg/ml poly(Glu, Tyr) 4:1, 10 mM MgAcetate and [gamma-33P-ATP] (specific activity approx. 500 cpm/pmol, concentration as required). The reaction is initiated by the addition of the MgATP mix. After incubation for 40 minutes at room temperature, the reaction is stopped by the addition of 5 μl of a 3% phosphoric acid solution. 10 μl of the reaction is then spotted onto a Filtermat A and washed three times for 5 minutes in 75 mM phosphoric acid and once in methanol prior to drying and scintillation counting.

GSK3α(h), sequence (P49840 whole entry): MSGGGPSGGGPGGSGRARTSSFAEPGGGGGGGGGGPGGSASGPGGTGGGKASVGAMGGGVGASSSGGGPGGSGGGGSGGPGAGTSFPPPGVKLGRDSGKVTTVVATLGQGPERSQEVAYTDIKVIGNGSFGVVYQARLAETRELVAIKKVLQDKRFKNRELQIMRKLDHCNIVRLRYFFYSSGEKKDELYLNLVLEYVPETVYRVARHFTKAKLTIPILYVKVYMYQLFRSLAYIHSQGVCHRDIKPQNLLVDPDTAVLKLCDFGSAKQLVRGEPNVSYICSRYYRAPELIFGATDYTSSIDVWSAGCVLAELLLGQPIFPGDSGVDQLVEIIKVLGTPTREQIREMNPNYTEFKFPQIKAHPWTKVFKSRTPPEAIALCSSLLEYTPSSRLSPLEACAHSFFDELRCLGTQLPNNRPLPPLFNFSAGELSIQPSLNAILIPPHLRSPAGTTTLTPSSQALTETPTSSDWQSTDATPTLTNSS
EphB2(h), sequence (P29323 19-1055): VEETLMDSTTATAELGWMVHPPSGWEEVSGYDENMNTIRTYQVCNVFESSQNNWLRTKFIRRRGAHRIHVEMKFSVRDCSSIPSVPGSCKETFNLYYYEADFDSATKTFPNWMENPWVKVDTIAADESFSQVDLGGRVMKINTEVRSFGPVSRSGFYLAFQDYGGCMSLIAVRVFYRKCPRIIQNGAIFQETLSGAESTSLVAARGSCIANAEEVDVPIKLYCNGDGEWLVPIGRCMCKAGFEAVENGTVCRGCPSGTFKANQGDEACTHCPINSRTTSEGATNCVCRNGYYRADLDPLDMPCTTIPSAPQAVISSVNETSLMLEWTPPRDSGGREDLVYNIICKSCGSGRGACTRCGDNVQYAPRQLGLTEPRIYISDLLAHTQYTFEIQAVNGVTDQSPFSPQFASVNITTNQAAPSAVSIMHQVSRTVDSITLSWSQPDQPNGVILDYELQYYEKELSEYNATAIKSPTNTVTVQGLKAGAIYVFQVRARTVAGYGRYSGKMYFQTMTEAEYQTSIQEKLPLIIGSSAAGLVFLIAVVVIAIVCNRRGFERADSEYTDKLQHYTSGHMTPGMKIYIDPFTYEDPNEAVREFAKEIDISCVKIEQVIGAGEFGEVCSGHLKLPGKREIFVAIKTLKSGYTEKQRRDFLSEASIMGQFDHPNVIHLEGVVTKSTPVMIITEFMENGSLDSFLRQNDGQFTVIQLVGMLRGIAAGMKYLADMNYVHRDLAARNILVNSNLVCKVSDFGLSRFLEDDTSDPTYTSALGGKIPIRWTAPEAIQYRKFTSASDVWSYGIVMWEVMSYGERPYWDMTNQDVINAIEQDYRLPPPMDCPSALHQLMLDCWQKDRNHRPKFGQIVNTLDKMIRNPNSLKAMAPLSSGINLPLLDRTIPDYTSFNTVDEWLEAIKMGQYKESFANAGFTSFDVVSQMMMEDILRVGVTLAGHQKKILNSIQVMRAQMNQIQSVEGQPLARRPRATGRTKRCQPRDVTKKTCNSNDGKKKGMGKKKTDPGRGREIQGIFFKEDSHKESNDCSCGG
Arg(m), sequence (Q4JIM5 whole entry): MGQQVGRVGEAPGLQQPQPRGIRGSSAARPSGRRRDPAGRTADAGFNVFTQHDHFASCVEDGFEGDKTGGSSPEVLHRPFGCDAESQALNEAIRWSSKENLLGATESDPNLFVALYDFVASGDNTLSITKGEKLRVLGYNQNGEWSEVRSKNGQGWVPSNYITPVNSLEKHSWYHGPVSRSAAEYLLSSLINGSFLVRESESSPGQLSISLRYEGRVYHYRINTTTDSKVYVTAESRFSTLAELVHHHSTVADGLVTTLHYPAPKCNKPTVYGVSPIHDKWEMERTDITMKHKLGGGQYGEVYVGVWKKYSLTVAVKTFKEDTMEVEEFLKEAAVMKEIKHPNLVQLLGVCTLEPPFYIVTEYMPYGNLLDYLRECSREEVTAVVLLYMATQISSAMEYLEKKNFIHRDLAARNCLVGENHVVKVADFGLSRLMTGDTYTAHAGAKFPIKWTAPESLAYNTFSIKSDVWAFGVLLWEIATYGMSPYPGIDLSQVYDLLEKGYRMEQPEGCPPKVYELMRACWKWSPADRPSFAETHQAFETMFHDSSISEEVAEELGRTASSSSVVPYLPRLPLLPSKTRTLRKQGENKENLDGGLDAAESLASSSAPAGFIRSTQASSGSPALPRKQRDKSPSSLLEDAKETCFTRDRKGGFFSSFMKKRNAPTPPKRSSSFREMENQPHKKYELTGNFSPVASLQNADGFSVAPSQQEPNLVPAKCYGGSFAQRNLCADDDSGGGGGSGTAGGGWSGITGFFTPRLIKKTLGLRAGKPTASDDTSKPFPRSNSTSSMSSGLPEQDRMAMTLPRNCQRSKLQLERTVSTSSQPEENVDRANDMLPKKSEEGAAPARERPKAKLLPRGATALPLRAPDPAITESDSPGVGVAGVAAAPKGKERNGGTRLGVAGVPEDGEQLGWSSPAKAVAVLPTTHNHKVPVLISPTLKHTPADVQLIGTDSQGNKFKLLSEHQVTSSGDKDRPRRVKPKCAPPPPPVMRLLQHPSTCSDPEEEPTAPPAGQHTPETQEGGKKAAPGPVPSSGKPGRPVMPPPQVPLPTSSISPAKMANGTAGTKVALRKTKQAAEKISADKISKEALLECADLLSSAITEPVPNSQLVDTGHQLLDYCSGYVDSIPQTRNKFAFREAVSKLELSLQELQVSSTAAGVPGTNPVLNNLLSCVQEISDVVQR
SAPK3(h), sequence (P53778 whole entry): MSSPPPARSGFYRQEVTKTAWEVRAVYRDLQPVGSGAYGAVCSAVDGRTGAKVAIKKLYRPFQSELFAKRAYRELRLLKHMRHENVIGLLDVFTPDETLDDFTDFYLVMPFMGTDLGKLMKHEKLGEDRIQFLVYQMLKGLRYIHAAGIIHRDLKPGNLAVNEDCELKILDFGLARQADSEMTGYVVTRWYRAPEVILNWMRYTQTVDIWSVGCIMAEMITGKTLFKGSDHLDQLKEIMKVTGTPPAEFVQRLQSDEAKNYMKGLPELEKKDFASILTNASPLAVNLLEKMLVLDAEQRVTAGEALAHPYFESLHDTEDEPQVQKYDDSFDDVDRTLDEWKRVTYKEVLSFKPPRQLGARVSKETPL

For `CN1CCCC1CCNC(=O)c1cn2c3c(c(N4CCC(c5cnccn5)C4)c(F)cc3c1=O)Oc1cc3ccccc3cc1-2` (stereo not drawn) [Compound A-1], the remaining activity at 2.5 µM turned out to be 85% in assay [1]; 43% in assay [2]; 97% in assay [3]; 101% in assay [4]; 50% in assay [5]; 96% in assay [6].

For the molecule `CC(=O)N1CCN(c2ccc3c(=O)c(C(=O)NCCN4CCCC4)c4n(C)c5ccccc5n4c3n2)CC1` [Compound B-1], the remaining activity at 2.5 µM in assay [1] came out at 111%; in assay [2], 102%; in assay [3], 98%; in assay [4] it was 89%; in assay [5], 94%; in assay [6], 106%.
